Measured values taken from patent US4755522A, “Derivatives of N-[3-(2,4,6-trimethoxybenzoyl)propyl]piperidine, and their use in therapeutics” (priority 1986, dated 1988).
Counter-ions that a name gives are not always drawn. Like-named read-outs stand apart in the source and are kept apart here.

Key:
intergroup aggressivity = assay: Intergroup aggressivity; settings: in vivo
Protocol: (§1) The compound of example 2 in solution in distilled water (pH 5.5 to 6.0) was administered by intraperitoneal route at a rate of 20 ml/kg in mice (male, NMRI, C.E.R. January) and of 5 ml/kg to rats (male, CD1, Sprague Dawley, Charles River).

reserpinic hypothermia = assay: Reserpinic hypothermia; settings: in vivo
Protocol: as §1

[1] = system: arrhythmias caused by I.V. injection of adrenaline; assay: Arrhythmias caused by I.V. adrenaline in dogs with coronary artery previously ligatured; type: in vivo, dog
man = assay: Anti-depressant effect in man; type: in vivo
[2] = system: amphetaminic stereotypies; assay: Amphetaminic stereotypies in the rat; type: in vivo
Protocol: as §1

isoprenaline = assay: Effects of isoprenaline on arterial pressure and cardiac rate after the compound (dog); type: in vivo; settings: after CRL 41,390
Protocol: (§2) 3 dogs (average weight, 14 kg) anaesthetized with nembutal, received the CRL 41,390 by intra-duodenal route, at successive doses of 0.1-0.5-1-2.5-5-10-20 mg/kg, then a supplementary dose of 10 mg/kg I.V.

awakened dog = assay: Anti-arrhythmic action on the awakened dog; type: in vivo
cardio-vascular system = assay: Action on the cardio-vascular system in the anaesthetized dog; type: in vivo; settings: for minimal effective dose: Canis lupus familiaris, read-out: dose from which heart rate is significantly reduced
Protocol: (b) Action on the cardio-vascular system (in the dog).
(§3) 3 dogs (average weight, 12 kg) anaesthetized with nembutal, receive the compound by intra-duodenal route at successive doses of 0.1-0.5-2.5-10 and 20 mg/kg.
The arterial pressure, the cardiac rate, the femoral arterial flow, the vertebral arterial flow, the rectal and skin temperatures are all measured. The coloration of the skin is observed.
as §2
The arterial pressure, the cardiac frequency, the femoral arterial flow, the vertebral arterial flow, the rectal and cutaneous temperatures, were measured. The coloration of the skin was observed.

noradrenaline = assay: Hypertension with noradrenaline after the compound (dog); type: in vivo; settings: after CRL 41,390
Protocol: as §3, §2
Hypertension to noradrenaline is not modified: at 2 mcg/kg of noradrenaline, the systolic arterial pressure passes, after administration of the product, from 160 to 290 mmHg/161 to 289 mmHg in the control.

arterial pressure = settings: prior-technique compound; cited from earlier work
[3] = system: arrhythmias with aconitine; assay: Arrhythmias with aconitine in the guinea-pig; type: in vivo
Protocol: The compound was administered by intravenous route at a dose of 10 mg/kg to a series of 10 albino guinea-pigs of 380 to 495 g, anaesthetized with urethane.
5 minutes later, they receive an I.V. perfusion of the product causing arrhythmia at a dosage of 0.09 mg/min. in a volume of 0.6 ml/min.
The compound is compared with quinidine at a dose of 5 mg/kg I>V> and with a series of controls.
Lots are drawn for the treatments.
B--Action on arrhythmias with aconitine.

[4] = I.D. 0.1-20 mg/kg then 10 mg/kg I.V.

Structure (SMILES): CCOC(=O)C1CCCN(CCCC(=O)c2c(OC)cc(OC)cc2OC)C1 (centres unmarked) [CRL 41,389, ethyl N-[3-(2,4,6-trimethoxybenzoyl)propyl] nipecotate hydrochloride]
- intergroup aggressivity (intergroup aggressivity): reduction of intergroup aggressivity
- reserpinic hypothermia (reserpinic hypothermia): aggravation of reserpinic hypothermia
- minimal effective dose ([1]; Canis lupus familiaris, iv, read-out: dose from which arrhythmias are reduced): 2.5 mg/kg
- arrhythmias caused by I.V. adrenaline ([1]; from 2.5 mg/kg): reduces arrhythmias
- effect in man (man): anti-depressant stimulant
- amphetaminic stereotypies [2]: moderate potentialization

Structure (SMILES): COc1cc(OC)c(C(=O)CCCN2CCCC(C(=O)O)C2)c(OC)c1.Cl (centres unmarked) [CRL 41,390, N-[3-(2,4,6-trimethoxybenzoyl)propyl]-3-piperidine carboxylic acid hydrochloride]
- diastolic arterial pressure after the product, with isoprenaline (isoprenaline; 10 mcg/kg isoprenaline, control 35): 44 mmHg
- cardiac frequency after the product, with isoprenaline (isoprenaline; 10 mcg/kg isoprenaline, control 272): 250 beats/min.
- effects of isoprenaline on diastolic arterial pressure and cardiac frequency (isoprenaline): slightly reduced
- diastolic arterial pressure after the product, before isoprenaline (isoprenaline; control 135): 131 mmHg
- cardiac frequency after the product, before isoprenaline (isoprenaline; control 185): 148 beats/min.
- anti-arrhythmic action (awakened dog): no anti-arrhythmic action
- effect on vertebral flow (cardio-vascular system; 20 mg/kg): reduction in the vertebral flow
- effect on femoral flow (cardio-vascular system; 20 mg/kg, particularly in a dog): slight increase in the femoral flow
- minimal effective dose (cardio-vascular system; intraduodenal): 20 mg/kg
- minimal effective dose (cardio-vascular system; iv, I.V.): 2.5 mg/kg
- effect on rectal and cutaneous temperatures (cardio-vascular system; [4]): moderately reduced
- effect on the arterial pressure (cardio-vascular system; [4]): no effect on the arterial pressure
- effect on heart rate (cardio-vascular system; from I.V. 2.5 mg/kg and intraduodenal 20 mg/kg): significantly reduces the heart rate
- systolic arterial pressure after the product, with noradrenaline (noradrenaline; 2 mcg/kg noradrenaline, control 289): 290 mmHg
- hypertension to noradrenaline (noradrenaline): not modified
- systolic arterial pressure after the product, before noradrenaline (noradrenaline; control 161): 160 mmHg

Structure (SMILES): COc1cc(OC)c(C(=O)CCCN2CCCC(C)C2)c(OC)c1 (centres unmarked) [CRL 41,034, (2,4,6-trimethoxyphenyl)-[3-(3-methylpiperidino)propyl] ketone]
- effect on the arterial pressure (arterial pressure): hypotensive effect

Structure (SMILES): C=C[C@H]1C[N@@]2CC[C@H]1C[C@@H]2[C@@H](O)c1ccnc2ccc(OC)cc12 [quinidine, reference compound]
- appearance of ventricular tachycardia due to aconitine ([3]; quinidine 5 mg/kg I.V.): significantly retards only the appearance of ventricular tachycardia
- retardation of ventricular tachycardia (average) ([3]; quinidine 5 mg/kg I.V.): +30%
- retardation compared with the compound according to the invention ([3]; quinidine 5 mg/kg I.V. vs compound 10 mg/kg I.V.): significantly less than that observed with the compound according to the invention
